Assay results taken from patent publication US20110065694A1 (priority 2009, published 2011).

Assays:
[1] = biological target: human histamine H3 receptor (Homo sapiens, UniProt Q9Y5N1); assay: H3 GTPγS assay (SPA method), histamine H3 in vitro assay; assay type: biochemical; conditions: membranes of cells expressing human H3; GTPγ[35S] SPA; antagonist testing with reference agonist at EC80 (30 nM); in one embodiment HCl salts tested; read-out: Potency (functional potency as indicated by IC50)
Protocol: Briefly, cells expressing the human histamine H3 receptor were homogenized in 15 mM Tris-HCl pH 7.5, 2 mM MgCl2, 0.3 mM EDTA, and 1 mM EGTA. […] Membranes were frozen in liquid nitrogen until use. On the day of the assay, membranes were thawed and diluted in assay buffer (20 mM HEPES pH 7.4, 100 mM NaCl, 10 μg/ml saponin, 1 mM MgCl2) to give 500 μg/ml and mixed (v/v) with GDP in assay buffer for a final GDP concentration of 10 μM and incubated on ice for at least […]. PVT-WGA beads (Amersham, RPNQ001) were diluted in assay buffer at 50 mg/mL and mixed with GTPγ[^35S] (Amersham, SJ1308) diluted in assay buffer to give ˜25,000 dpm/10 μL and mixed vol/vol just before the start of the reaction.
For antagonists testing, 10 μL of a reference agonist ([…]) instead of 10 μL buffer was added at a concentration corresponding to the EC80 (30 nM).
The compounds provided herein were tested in the histamine H3 in vitro assay. In one embodiment, the respective HCl salts of the compounds provided herein were prepared using standard chemical procedures and tested in the histamine H3 in vitro assay.

H3 receptor = biological target: T1, H3 receptor (Rattus norvegicus, UniProt Q9QYN8); assay: Rat H3 ex vivo receptor occupancy assay; conditions: dose giving 50% H3 receptor occupancy; ex vivo binding of [3H] R-α-methylhistamine in rat frontal cortical membranes
T1 construct: membranes to be tested were prepared from brain frontal cortex membranes by homogenization; from tissue; host or cells: frontal cortex of adult male Sprague-Dawley rats
T1 sequence (Q9QYN8 whole entry): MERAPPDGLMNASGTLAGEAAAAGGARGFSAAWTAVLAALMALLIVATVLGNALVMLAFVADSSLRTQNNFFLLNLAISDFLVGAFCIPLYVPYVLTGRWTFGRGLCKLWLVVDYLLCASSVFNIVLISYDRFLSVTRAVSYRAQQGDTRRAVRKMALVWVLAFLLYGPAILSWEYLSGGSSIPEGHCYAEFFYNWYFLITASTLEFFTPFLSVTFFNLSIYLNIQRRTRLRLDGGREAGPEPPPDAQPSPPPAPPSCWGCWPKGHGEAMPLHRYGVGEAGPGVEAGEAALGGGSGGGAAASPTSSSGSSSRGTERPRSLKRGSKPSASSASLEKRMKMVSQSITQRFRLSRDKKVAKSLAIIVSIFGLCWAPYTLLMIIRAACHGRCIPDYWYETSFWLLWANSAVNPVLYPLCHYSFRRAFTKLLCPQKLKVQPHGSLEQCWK
Protocol: This assay was designed to measure occupancy of H3 receptors by compounds provided herein by measuring the competition of binding to the H3 receptor with a radiolabeled ligand known to bind to the H3 receptor. More specifically, receptor occupancy was determined by ex vivo binding studies in rat cortical membranes.
Adult male Sprague-Dawley rats were treated with vehicle or compound at four different dose levels. After an appropriate pre-treatment time (typically 30 min to 1 hr), membranes to be tested were prepared from brain frontal cortex membranes by homogenization in ice-cold assay buffer. Frontal cortical membranes (400 μL containing an equivalent of 5 mg wet weight of tissue/tube) were incubated with 50 µL of [^3H] R-α-methylhistamine (final concentration 2 nM) and either 50 μL of buffer (total binding) or 50 μL of imetit (10 μM; non-specific binding) for 30 min at 25° C. in triplicates. Membrane bound radioactivity was recovered by filtration under vacuum through Skatron 11731 filters, pre-soaked in 0.5% PEI. Filters were rapidly washed with ice-cold 50 mM Tris buffer (wash setting 9,9,0) and radioactivity was determined by liquid scintillation counting (1 mL Packard MV Gold Scintillator). The amount of radioactivity in the membranes at the different doses was used generate a dose response curve and to calculate the ED50 (the dose that results in 50% receptor occupancy).
ED50 is the amount of drug at which 50% of the H3 receptors are occupied by the drug as measured by the amount of radioactivity measured at that dose relative to that measured when no drug (or vehicle) was administered.

Sprague-Dawley rats = assay: Rat EEG assay; assay type: in vivo; conditions: for number of wake and non-REM sleep bouts / wake bout duration / wake promotion / time spent in REM sleep / time spent in non-REM sleep / time spent in wake: EEG; for normalized power in the 40-60 Hz range (EEG spectral analysis): EEG spectra; for wake promotion: first 6 hours post-dosing; for time spent in REM sleep / time spent in non-REM sleep / time spent in wake: relative to vehicle treated animals
Protocol: The rat EEG assay was designed to measure electrical signals from the brain as a proxy for in vivo biological activity at the H3 receptor.
Specifically, animals were housed in a temperature-controlled recording room under a 12 hour/12 hour light/dark cycle, with food and water available ad libitum. Eight male Sprague-Dawley rats were implanted with chronic recording devices for continuous recordings of electroencephalograph (EEG) via telemetry (Data Sciences Inc). A repeated measures design was employed in which each rat received eight separate dosings of the compound being tested with a minimum of 3 days between doses. […] EEG data were scored visually in 10 second epochs for wake, REM, and non-REM states. Scored data were analyzed and expressed as time spent in each state per hour. Cumulative time spent in wake, non-REM, and REM states were calculated for the 6 hour recording period. To determine whether any of the pharmacological treatments affected the consolidation of behavioral states, the duration and number of bouts for each state were calculated in hourly bins. A “bout” consisted of a minimum of two consecutive 10-second epochs of a given state and ended with any single state change epoch. The EEG spectra during wake and non-REM sleep were analyzed offline with a fast Fourier transform algorithm (NeuroScore software, Data Sciences Inc) on all epochs without a visually detectable artifact. Wake EEG spectra were analyzed in 1 Hz bins. Data were analyzed using two-way repeated-measures ANOVA.
For both compounds, there was an increase in the time spent in wake, a decrease in the time spent in non-REM sleep, and no change in the time spent in REM sleep relative to vehicle treated animals.

human histamine H3 receptor, sequence (Q9Y5N1 whole entry): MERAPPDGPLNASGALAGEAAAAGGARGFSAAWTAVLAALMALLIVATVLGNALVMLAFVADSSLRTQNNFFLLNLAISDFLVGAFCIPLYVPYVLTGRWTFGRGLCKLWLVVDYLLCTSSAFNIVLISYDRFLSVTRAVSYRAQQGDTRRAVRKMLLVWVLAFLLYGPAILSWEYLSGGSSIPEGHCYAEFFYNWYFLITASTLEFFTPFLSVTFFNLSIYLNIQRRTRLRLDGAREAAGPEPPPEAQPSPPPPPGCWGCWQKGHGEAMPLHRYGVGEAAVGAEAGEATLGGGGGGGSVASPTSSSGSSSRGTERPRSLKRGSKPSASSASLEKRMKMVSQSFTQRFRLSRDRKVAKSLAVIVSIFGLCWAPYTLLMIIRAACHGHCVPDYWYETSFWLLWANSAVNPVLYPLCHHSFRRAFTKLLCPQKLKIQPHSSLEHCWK

Structure (SMILES): c1cn2cc(-c3ccc4c(c3)nc3n4CCN4CCCC[C@@H]4C3)ccc2n1 (single isomer, unassigned) [Compound 48]
- IC50 [1]: < 10 nM
- ED50 (H3 receptor): ≤ 1 mg/kg
- number of wake and non-REM sleep bouts (Sprague-Dawley rats): decrease
- wake bout duration (Sprague-Dawley rats): increase
- normalized power in the 40-60 Hz range (EEG spectral analysis) (Sprague-Dawley rats): increase
- wake promotion (Sprague-Dawley rats): wake promoting
- time spent in REM sleep (Sprague-Dawley rats): no change
- time spent in non-REM sleep (Sprague-Dawley rats): decrease
- time spent in wake (Sprague-Dawley rats): increase

Structure (SMILES): c1ccc2c(c1)CCN(Cc1ccc3c(c1)nc1n3CCN3CCCC[C@@H]3C1)C2 (single isomer, unassigned) [Compound 64]
- IC50 [1]: < 10 nM
- ED50 (H3 receptor): ≥ 1 mg/kg

Structure (SMILES): c1cn2cc(-c3ccc4c(c3)nc3n4CCCN(C4CCC4)CC3)ccc2n1 [Compound 59, 3-cyclobutyl-10-(imidazo[1,2-a]pyridin-6-yl)-1,2,3,4,5,6-hexahydrobenzo[4,5]imidazo[1,2-a][1,5]diazocine]
- IC50 [1]: < 10 nM
- ED50 (H3 receptor): ≤ 1 mg/kg
- number of wake and non-REM sleep bouts (Sprague-Dawley rats): decrease
- wake bout duration (Sprague-Dawley rats): increase
- normalized power in the 40-60 Hz range (EEG spectral analysis) (Sprague-Dawley rats): increase
- wake promotion (Sprague-Dawley rats): wake promoting
- time spent in REM sleep (Sprague-Dawley rats): no change
- time spent in non-REM sleep (Sprague-Dawley rats): decrease
- time spent in wake (Sprague-Dawley rats): increase

Structure (SMILES): c1ccc2c(c1)CCN(Cc1ccc3c(c1)nc1n3CCN3CCCC3C1)C2 (stereo not shown) [Compound 76, 10-((3,4-dihydroisoquinolin-2(1H)-yl)methyl)-2,3,5,6,13,13a-hexahydro-1H-benzo[4,5]imidazo[1,2-d]pyrrolo[2,1-g][1,4]diazepine]
- IC50 [1]: < 10 nM

Structure (SMILES): Brc1ccc2c(c1)nc1n2CCCN2CCCC2C1 (stereo not shown) [Compound 79, 11-bromo-1,2,3,5,6,7,14,14a-octahydrobenzo[4,5]imidazo[1,2-a]pyrrolo[2,1-d][1,5]diazocine]
- IC50 [1]: < 100 nM

Structure (SMILES): N#Cc1ccc(-c2ccc3c(c2)nc2n3CCCN3CCCC3C2)cc1 (stereo not shown) [Compound 80, 4-(1,2,3,5,6,7,14,14a-octahydrobenzo[4,5]imidazo[1,2-a]pyrrolo[2,1-d][1,5]diazocin-11-yl)benzonitrile]
- IC50 [1]: < 10 nM

Structure (SMILES): c1cn2cc(-c3ccc4c(c3)nc3n4CCCN4CCCC4C3)ccc2n1 (stereo not shown) [Compound 81, 11-(imidazo[1,2-a]pyridin-6-yl)-1,2,3,5,6,7,14,14a-octahydrobenzo[4,5]imidazo[1,2-a]pyrrolo[2,1-d][1,5]diazocine]
- IC50 [1]: < 10 nM

Structure (SMILES): c1cc2c(cc1CN1CCOCC1)nc1n2CCCN(C2CCC2)CC1 [Compound 84, 4-((3-cyclobutyl-1,2,3,4,5,6-hexahydrobenzo[4,5]imidazo[1,2-a][1,5]diazocin-10-yl)methyl)morpholine]
- IC50 [1]: < 10 nM
- ED50 (H3 receptor): ≥ 1 mg/kg

Structure (SMILES): c1ccc2c(c1)CCN(Cc1ccc3c(c1)nc1n3CCCN(C3CCC3)CC1)C2 [Compound 85, 3-cyclobutyl-10-((3,4-dihydroisoquinolin-2(1H)-yl)methyl)-1,2,3,4,5,6-hexahydrobenzo[4,5]imidazo[1,2-a][1,5]diazocine]
- IC50 [1]: < 10 nM
- ED50 (H3 receptor): ≤ 1 mg/kg
